Reference: the NIST ThermoML archive (doi:10.1016/j.jct.2011.12.022)
“And” between values parts separate entries of the source, which are not always exact repeats. Identical values can stand only once.

Experiment: mn = molality of the nth substance listed, in mol/kg
Settings: 101 kPa, Liquid, Pycnometric method

CN(C)C(=N)NC(=N)N.Cl [N,N-dimethylimidodicarbonimidic diamide hydrochloride] + O
Settings	mass density
288.15 K, m1 = 0.0309	1000.34 kg/m3
288.15 K, m1 = 0.0416	1000.77 kg/m3
288.15 K, m1 = 0.0506	1001.17 kg/m3
288.15 K, m1 = 0.0608	1001.55 kg/m3
288.15 K, m1 = 0.0712	1001.9 kg/m3
288.15 K, m1 = 0.0815	1002.31 kg/m3
288.15 K, m1 = 0.0922	1002.71 kg/m3
288.15 K, m1 = 0.1028	1003.21 kg/m3
288.15 K, m1 = 0.1138	1003.39 kg/m3
288.15 K, m1 = 0.1207	1003.71 kg/m3
288.15 K, m1 = 0.1527	1004.89 kg/m3
298.15 K, m1 = 0.029	998.2 kg/m3
298.15 K, m1 = 0.0415	998.7 kg/m3
298.15 K, m1 = 0.0508	999.07 kg/m3
298.15 K, m1 = 0.0592	999.42 kg/m3
298.15 K, m1 = 0.0725	999.91 kg/m3
298.15 K, m1 = 0.0769	1000.1 kg/m3
298.15 K, m1 = 0.0904	1000.51 kg/m3
298.15 K, m1 = 0.1072	1001.13 kg/m3
298.15 K, m1 = 0.1191	1001.63 kg/m3 and 1001.57 kg/m3
298.15 K, m1 = 0.1303	1002 kg/m3
308.15 K, m1 = 0.0306	995.14 kg/m3
308.15 K, m1 = 0.0404	995.53 kg/m3
308.15 K, m1 = 0.0514	995.89 kg/m3
308.15 K, m1 = 0.058	996.2 kg/m3
308.15 K, m1 = 0.0704	996.6 kg/m3
308.15 K, m1 = 0.0811	996.95 kg/m3
308.15 K, m1 = 0.0915	997.53 kg/m3
308.15 K, m1 = 0.1014	997.74 kg/m3
308.15 K, m1 = 0.1218	998.62 kg/m3
308.15 K, m1 = 0.152	999.56 kg/m3

CNC(=C[N+](=O)[O-])NCCSCc1ccc(CN(C)C)o1.Cl [ranitidine hydrochloride] + O
Settings	mass density [kg/m3]
288.15 K, m1 = 0.0202	1000.92
288.15 K, m1 = 0.0306	1001.78
288.15 K, m1 = 0.0407	1002.69
288.15 K, m1 = 0.0488	1003.32
288.15 K, m1 = 0.0602	1004.33
288.15 K, m1 = 0.0702	1005.27
288.15 K, m1 = 0.0813	1006.23
288.15 K, m1 = 0.092	1007.13
288.15 K, m1 = 0.1019	1007.93
288.15 K, m1 = 0.1149	1009.12
288.15 K, m1 = 0.1521	1012.15
298.15 K, m1 = 0.0103	997.99
298.15 K, m1 = 0.0198	998.81
298.15 K, m1 = 0.0295	999.58
298.15 K, m1 = 0.0501	1001.38
298.15 K, m1 = 0.0603	1002.17
298.15 K, m1 = 0.0697	1002.94
298.15 K, m1 = 0.0789	1003.7
298.15 K, m1 = 0.0907	1004.69
298.15 K, m1 = 0.0994	1005.38
298.15 K, m1 = 0.1171	1006.83
298.15 K, m1 = 0.1475	1009.32
308.15 K, m1 = 0.0109	994.91
308.15 K, m1 = 0.0191	995.59
308.15 K, m1 = 0.0313	996.62
308.15 K, m1 = 0.0428	997.58
308.15 K, m1 = 0.0507	998.2
308.15 K, m1 = 0.059	998.85
308.15 K, m1 = 0.0695	999.78
308.15 K, m1 = 0.0876	1001.15
308.15 K, m1 = 0.0986	1002.15
308.15 K, m1 = 0.119	1003.69
308.15 K, m1 = 0.1483	1006.01

COc1cccc([C@@]2(O)CCCC[C@@H]2CN(C)C)c1.Cl [tramadol hydrochloride] + O
Settings	mass density [kg/m3]
288.15 K, m1 = 0.0138	999.75
288.15 K, m1 = 0.026	1000.36
288.15 K, m1 = 0.0298	1000.53
288.15 K, m1 = 0.04	1001.04
288.15 K, m1 = 0.0536	1001.72
288.15 K, m1 = 0.0604	1002.03
288.15 K, m1 = 0.0702	1002.51
288.15 K, m1 = 0.0805	1002.96
288.15 K, m1 = 0.0903	1003.44
288.15 K, m1 = 0.099	1003.81
288.15 K, m1 = 0.1207	1004.82
288.15 K, m1 = 0.1511	1006.21
298.15 K, m1 = 0.0114	997.56
298.15 K, m1 = 0.0211	998.02
298.15 K, m1 = 0.0296	998.42
298.15 K, m1 = 0.0403	998.93
298.15 K, m1 = 0.0501	999.29
298.15 K, m1 = 0.0607	999.82
298.15 K, m1 = 0.0804	1000.74
298.15 K, m1 = 0.0923	1001.23
298.15 K, m1 = 0.1016	1001.66
298.15 K, m1 = 0.1183	1002.31
298.15 K, m1 = 0.149	1003.78
308.15 K, m1 = 0.0117	994.5
308.15 K, m1 = 0.0195	994.81
308.15 K, m1 = 0.0299	995.32
308.15 K, m1 = 0.0399	995.75
308.15 K, m1 = 0.0493	996.19
308.15 K, m1 = 0.06	996.6
308.15 K, m1 = 0.0717	997.13
308.15 K, m1 = 0.082	997.64
308.15 K, m1 = 0.0912	997.99
308.15 K, m1 = 0.1	998.39
308.15 K, m1 = 0.1181	999.15
308.15 K, m1 = 0.1501	1000.52
